Several values for one entry are separate records, joined by “and”; a condition that tells them apart may be missing. Equal entries are not always repeated. Where two headings read alike, the source gives them in different places.
What was measured:
rat liver [1] = conditions: for Pathological observations in liver: model false positive
Text: (§1) After 3-day treatment, rat liver samples were collected for RNA extraction and histo-pathology examination. Sera from the same rats were subjected to clinical chemistry monitoring.

rat liver [2] = test: Serum clinical chemistry: aspartate aminotransferase (AST) after 3-day treatment
Text: as §1
(§2) Liver injury was identified by the individual clinical chemistry measurement if its level was outside +/− two standard deviations of the averaged level of normal animals.

rat liver [3] = test: Serum clinical chemistry: alanine aminotransferase (ALT) after 3-day treatment
Text: as §1, §2

rat liver [4] = test: Serum clinical chemistry: total bilirubin (Tbil) after 3-day treatment
Text: as §1, §2

rat liver [5] = test: Serum clinical chemistry: alkaline phosphatase (ALP) after 3-day treatment
Text: as §1, §2

rat liver [6] = test: Serum clinical chemistry: cholesterol (Chol) after 3-day treatment
Text: as §1, §2

rat liver [7] = conditions: in vivo, 150 mg/kg/day
rat liver [8] = test: Hepatotoxicity score (HS) combined from five clinical chemistry measurements, threshold -0.25; conditions: 3-day treatment
[9] = rat serum, dose 500 mg/kg/day, individual rats
[10] = SD rats, 10 mg/kg/day, 3-day treatment, the other two of three treated rats
[11] = rat serum, dose 50 mg/kg/day, individual rats
[12] = rat serum, dose 1 mg/kg/day, individual rats
[13] = rat serum, dose 320 mg/kg/day, individual rats
[14] = rat serum, dose 45 mg/kg/day, individual rats
[15] = rat serum, dose 450 mg/kg/day, individual rats
[16] = rat serum, dose 160 mg/kg, individual rats
[17] = rat serum, dose 1600 mg/kg, individual rats
[18] = rat serum, dose .001 mg/kg/day, individual rats
[19] = rat serum, dose 100 mg/kg, individual rats
[20] = rat serum, dose 1000 mg/kg, individual rats

CCSCC[C@H](N)C(=O)O [L-ethionine]
Pathological observations in liver (rat liver [1]; 50 mg/kg/day treated group, 3-day treatment): noticeable pathological changes

CC1=C(/C=C/C(C)=C/C=C/C(C)=C/CO)C(C)(C)CCC1 [Retinol]
AST (rat liver [2]; [9]): 88.000 and 157.000 and 112.000 | ALT (rat liver [3]; [9]): 27.000 and 31.000 and 37.000 | TBil (rat liver [4]; [9]): 0.200 | ALP (rat liver [5]; [9]): 259.000 and 241.000 and 348.000 | Chol. (rat liver [6]; [9]): 67.000 and 50.000 and 47.000

CC(=O)Oc1ccccc1C(=O)O [aspirin]
Histopathology examination of liver (rat liver [1]; rat, in vivo, 150 mg/kg/day): Cellular abnormality | Liver damage call by hepatotoxicity score versus individual clinical chemistry measures (rat liver [7]): positives detected by the hepatotoxicity score

CN1C(=O)CN=C(c2ccccc2)c2cc(Cl)ccc21 [diazepam]
TBil (rat liver [4]; rat, in vivo): 0.100

CCN(CC)N=O [diethylnitrosamine]
Pathological observations in liver (rat liver [1]; 100 mg/kg/day treated group, 3-day treatment): noticeable pathological changes

CN(C)C=O [dimethlformamide]
Pathological observations in liver (rat liver [1]; 1000 mg/kg/day treated group, 3-day treatment): noticeable pathological changes

C[C@]12CC[C@@H]3c4ccc(O)cc4CC[C@H]3[C@@H]1CC[C@@H]2O[C@@H]1O[C@H](C(=O)O)[C@@H](O)[C@H](O)[C@H]1O [estradiol glucuronide]
Liver damage call by hepatotoxicity score versus individual clinical chemistry measures (rat liver [8]; SD rat, high dose 10 mg/kg/day): positives detected by the hepatotoxicity score | Liver injury by ALT (rat liver [3]; [10]): showed liver injury | Histopathology examination of liver (rat liver [1]; SD rats, 10 mg/kg/day treatment group, 3-day treatment): Cellular abnormality | Liver injury by ALP (rat liver [5]; [10]): showed liver injury

CN(C)C(=N)N=C(N)N [metformin]
Liver damage call by hepatotoxicity score versus individual clinical chemistry measures (rat liver [8]; one SD rat, 900 mg/kg/day): false negatives | Histopathology examination of liver (rat liver [1]; rat, in vivo, 900 mg/kg/day): no observable liver abnormality

C[C@H]1C(=O)O[C@@H]2CCN3CC=C(COC(=O)[C@](C)(O)[C@]1(C)O)[C@H]23 [monocrotaline, reference compound]
Liver damage call by hepatotoxicity score versus individual clinical chemistry measures (rat liver [8]; one SD rat, high dose 50 mg/kg/day): false negatives | AST (rat liver [2]; [11]): 123.000 and 135.000 and 270.000 | ALT (rat liver [3]; [11]): 44.000 and 64.000 and 610.000 | Histopathology examination of liver (rat liver [1]; SD rat, 50 mg/kg/day, 3-day treatment, HS false negative sample): no observable liver abnormality | TBil (rat liver [4]; [11]): 0.200 (2×) and 1.500 | ALP (rat liver [5]; [11]): 194.000 and 211.000 and 298.000 | Chol. (rat liver [6]; [11]): 54.000 and 61.000 and 69.000

CC[C@H]1/C=C/C=C/C[C@@H](C)[C@H](O)[C@@](C)(O)C(=O)[C@@H](C)[C@H](O)[C@@H](C)C(=O)[C@@H](C)[C@H](O)[C@@H](C)/C=C/C(=O)O[C@@H]2[C@H](C)[C@H](CC1)O[C@]1(CC[C@H](C)[C@H](C[C@@H](C)O)O1)[C@H]2C [oligomycin]
AST (rat liver [2]; [12]): 72.000 (2×) and 75.000 | ALT (rat liver [3]; [12]): 44.000 and 46.000 and 58.000 | TBil (rat liver [4]; [12]): 0.200 | ALP (rat liver [5]; [12]): 361.000 and 289.000 and 397.000 | Chol. (rat liver [6]; [12]): 47.000 and 72.000 and 59.000

C1CCC(C(CC2CCCCN2)C2CCCCC2)CC1 (centres unmarked) [perhexilene, reference compound]
AST (rat liver [2]; [13]): 103.000 and 116.000 and 98.000 | ALT (rat liver [3]; [13]): 51.000 and 129.000 and 31.000 | TBil (rat liver [4]; [13]): 0.100 | ALP (rat liver [5]; [13]): 248.000 and 340.000 and 245.000 | Chol. (rat liver [6]; [13]): 45.000 and 44.000 and 66.000

O=C1NC(=O)C(c2ccccc2)(c2ccccc2)N1 [phenytoin]
AST (rat liver [2]; [14]): 65.000 and 81.000 | AST (rat liver [2]; [15]): 130.000 and 71.000 and 65.000 | ALT (rat liver [3]; [14]): 26.000 and 19.000 | ALT (rat liver [3]; [15]): 49.000 and 38.000 and 24.000 | TBil (rat liver [4]; [14]): 0.200 | TBil (rat liver [4]; [15]): 0.200 and 0.100 (2×) | ALP (rat liver [5]; [14]): 199.000 and 214.000 | ALP (rat liver [5]; [15]): 255.000 and 233.000 and 312.000 | Chol. (rat liver [6]; [14]): 77.000 and 71.000 | Chol. (rat liver [6]; [15]): 61.000 and 73.000 and 66.000

CN[C@@H]1[C@H](O)[C@H](NC)[C@H]2O[C@@]3(O)C(=O)C[C@@H](C)O[C@H]3O[C@@H]2[C@H]1O [spectinomycin]
AST (rat liver [2]; [16]): 83.000 and 74.000 and 70.000 | AST (rat liver [2]; [17]): 98.000 and 95.000 and 86.000 | ALT (rat liver [3]; [16]): 52.000 and 36.000 and 46.000 | ALT (rat liver [3]; [17]): 60.000 and 44.000 and 30.000 | TBil (rat liver [4]; [16]): 0.100 | TBil (rat liver [4]; [17]): 0.100 | ALP (rat liver [5]; [16]): 174.000 and 181.000 | ALP (rat liver [5]; [17]): 246.000 and 189.000 and 176.000 | Chol. (rat liver [6]; [16]): 60.000 and 59.000 and 54.000 | Chol. (rat liver [6]; [17]): 36.000 and 62.000 and 26.000

CC/C(=C(\c1ccccc1)c1ccc(OCCN(C)C)cc1)c1ccccc1 [tamoxifen, reference compound]
Histopathology examination of liver (rat liver [1]; rat, in vivo, 5 mg/kg/day): no observable liver abnormality

CC(C)(C)c1ccc(C(O)CCCN2CCC(C(O)(c3ccccc3)c3ccccc3)CC2)cc1 (centres unmarked) [terfenadine]
TBil (rat liver [4]; rat, in vivo, 15 mg/kg): 0.100 | TBil (rat liver [4]; rat, in vivo, 150 mg/kg): 0.100

Cn1c(=O)c2[nH]cnc2n(C)c1=O [theophylline]
TBil (rat liver [4]; rat, in vivo, 75 mg/kg): 0.100

TNFalpha
AST (rat liver [2]; [18]): 70.000 (2×) and 59.000 | ALT (rat liver [3]; [18]): 53.000 and 48.000 and 55.000 | TBil (rat liver [4]; [18]): 0.200 (2×) and 0.100 | ALP (rat liver [5]; [18]): 728.000 and 255.000 and 312.000 | Chol. (rat liver [6]; [18]): 50.000 and 60.000 (2×)

aflatoxin B
AST (rat liver [2]; rat, in vivo): 206.000 and 132.000 and 156.000 | ALT (rat liver [3]; rat, in vivo): 81.000 and 48.000 and 59.000 | TBil (rat liver [4]; rat, in vivo): 0.200 | ALP (rat liver [5]; rat, in vivo): 297.000 and 166.000 and 217.000 | Chol. (rat liver [6]; rat, in vivo): 64.000 and 75.000 and 63.000

microcystin
AST (rat liver [2]; rat, in vivo): 204.000 and 384.000 and 296.000 | ALT (rat liver [3]; rat, in vivo): 140.000 and 258.000 and 144.000 | TBil (rat liver [4]; rat, in vivo): 0.600 and 0.400 | ALP (rat liver [5]; rat, in vivo): 518.000 and 427.000 and 514.000 | Chol. (rat liver [6]; rat, in vivo): 84.000 and 67.000 and 95.000

penicillin
AST (rat liver [2]; [19]): 127.000 and 144.000 | AST (rat liver [2]; [20]): 134.000 (2×) and 80.000 and 90.000 | ALT (rat liver [3]; [19]): 51.000 and 41.000 and 44.000 | ALT (rat liver [3]; [20]): 52.000 (2×) and 25.000 and 42.000 | TBil (rat liver [4]; [19]): 0.100 | TBil (rat liver [4]; [20]): 0.100 | ALP (rat liver [5]; [19]): 290.000 and 247.000 | ALP (rat liver [5]; [20]): 215.000 (2×) and 247.000 and 253.000 | Chol. (rat liver [6]; [19]): 49.000 and 37.000 and 69.000 | Chol. (rat liver [6]; [20]): 41.000 (2×) and 43.000 and 73.000

From US20050143628A1, “Methods for characterizing tissue or organ condition or status” (priority 2003, published 2005)
